Data on 1 molecule can be found in paper PMC7044277 (Nature Communications, 2020).

Holding throughout (assay type): cell-based
The target in experiment [1] is T1, 320 non-olfactory GPCRs (Homo sapiens, UniProt Q96LB1).
T1 construct: expressed in transfected cells; host or cells: HTLA cells
To be noted: receptor MRGPRX2; replicate values, Fig_4g.

In experiment [2] the target is T2, 320 non-olfactory GPCRs (Homo sapiens, UniProt Q9GZQ4).
T2 construct: expressed in transfected cells; host or cells: HTLA cells
As to conditions: receptor NMUR2; replicate values, Fig_4g.

In experiment [3] the target is T3, 320 non-olfactory GPCRs (Homo sapiens, UniProt P48145).
T3 construct: expressed in transfected cells; host or cells: HTLA cells
To be noted: receptor NPBW1; replicate values, Fig_4g.

Experiment [4] has as its target T4, 320 non-olfactory GPCRs (Homo sapiens, UniProt P48039).
T4 construct: expressed in transfected cells; host or cells: HTLA cells
As to conditions: receptor MTNR1A; replicate values, Fig_4g.

Several values for one entry are separate records, joined by “and”; a condition that tells them apart may be missing. Equal values may be shown once.
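Further: fold over basal response of each receptor without drug.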

T2 sequence (Q9GZQ4 whole entry): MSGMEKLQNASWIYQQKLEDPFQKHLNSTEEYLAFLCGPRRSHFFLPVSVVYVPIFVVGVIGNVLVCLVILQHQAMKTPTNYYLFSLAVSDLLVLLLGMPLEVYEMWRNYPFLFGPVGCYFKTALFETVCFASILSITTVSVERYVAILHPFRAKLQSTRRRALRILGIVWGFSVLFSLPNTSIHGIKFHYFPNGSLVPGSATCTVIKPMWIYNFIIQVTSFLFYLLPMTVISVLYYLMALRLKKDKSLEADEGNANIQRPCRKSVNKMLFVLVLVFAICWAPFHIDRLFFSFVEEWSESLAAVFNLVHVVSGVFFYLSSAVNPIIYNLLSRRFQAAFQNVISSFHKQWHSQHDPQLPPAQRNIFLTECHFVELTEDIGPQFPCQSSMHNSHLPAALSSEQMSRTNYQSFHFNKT
T4 sequence (P48039 whole entry): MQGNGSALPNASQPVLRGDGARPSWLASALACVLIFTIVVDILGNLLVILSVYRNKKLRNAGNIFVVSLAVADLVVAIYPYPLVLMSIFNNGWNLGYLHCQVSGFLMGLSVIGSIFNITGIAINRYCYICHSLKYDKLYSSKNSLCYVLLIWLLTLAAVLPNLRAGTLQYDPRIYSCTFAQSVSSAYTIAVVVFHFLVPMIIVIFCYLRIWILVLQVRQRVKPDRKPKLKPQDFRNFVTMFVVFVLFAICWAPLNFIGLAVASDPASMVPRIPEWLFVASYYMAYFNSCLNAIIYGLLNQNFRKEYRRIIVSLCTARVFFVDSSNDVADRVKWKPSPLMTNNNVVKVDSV
T1 sequence (Q96LB1 whole entry): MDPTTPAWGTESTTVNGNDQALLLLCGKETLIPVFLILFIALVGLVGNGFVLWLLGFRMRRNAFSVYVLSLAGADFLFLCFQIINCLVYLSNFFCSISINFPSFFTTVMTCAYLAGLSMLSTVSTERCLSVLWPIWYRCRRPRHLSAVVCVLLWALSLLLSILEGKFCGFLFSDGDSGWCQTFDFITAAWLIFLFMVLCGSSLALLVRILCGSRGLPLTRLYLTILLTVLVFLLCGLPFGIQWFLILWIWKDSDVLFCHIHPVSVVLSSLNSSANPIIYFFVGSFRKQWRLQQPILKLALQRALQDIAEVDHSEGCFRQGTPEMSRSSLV
T3 sequence (P48145 whole entry): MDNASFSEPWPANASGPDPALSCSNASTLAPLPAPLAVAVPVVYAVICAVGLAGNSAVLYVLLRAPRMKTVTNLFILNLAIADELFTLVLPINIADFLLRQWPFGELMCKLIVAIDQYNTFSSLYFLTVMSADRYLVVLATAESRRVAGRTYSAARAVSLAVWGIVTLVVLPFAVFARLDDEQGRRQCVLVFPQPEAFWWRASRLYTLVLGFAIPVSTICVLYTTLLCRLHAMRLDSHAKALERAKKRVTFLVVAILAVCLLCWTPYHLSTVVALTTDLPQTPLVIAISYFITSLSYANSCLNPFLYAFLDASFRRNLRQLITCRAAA

In the case of `CCOc1cccc2cc(C(C)NCC3(O)CCCCC3)oc12` (stereo not shown) [O4LE6], the “GPCRome agonism screen response” value at 320 non-olfactory GPCRs [1] was 1.268 and 1.306 and 1.279 and 0.9356; at 320 non-olfactory GPCRs [2] it was 1.0233 and 1.105 and 1.159 and 0.9738; at 320 non-olfactory GPCRs [3], 1.094 and 1.2601 and 1.077 and 0.8815; on 320 non-olfactory GPCRs [4], 2.743 and 4.229 and 2.242 and 2.817.
